In this test the target is T1, PDZD7 N-PDZ1ext (Mus musculus, UniProt E9Q9W7).
T1 construct: including the N-terminus of the protein (N-PDZ1ext construct; M1-E192); GST (followed by TEV site) (N, cleaved yes); made in house; host or cells: E. coli BL21 DE3
T1 sequence (E9Q9W7 1-192): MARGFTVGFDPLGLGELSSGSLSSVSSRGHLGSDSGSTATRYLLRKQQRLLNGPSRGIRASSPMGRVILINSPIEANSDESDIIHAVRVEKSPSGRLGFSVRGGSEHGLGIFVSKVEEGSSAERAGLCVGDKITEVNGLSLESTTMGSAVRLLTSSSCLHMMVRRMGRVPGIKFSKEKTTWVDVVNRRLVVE
Nature of the test: NMR titration of N-PDZ1ext with ADGRV1 ligands. The conditions noted are these: NMR titration, 25°C; SD over at least ten shifting peaks; read-out: Kd (Peptide). The test is classed as binding, murine. The method, then: All experiments were recorded at 25°C on a Bruker 800 MHz spectrometer equipped with a triple resonance ^1H{^13C/^15N} cryoprobe. The ^1H, ^15 N and ^13C backbone resonances assignment of PDZ1ext was carried out using 3D HNCA, HNCACB, HNCO, HNCOCA experiments (Tris HCl buffer adjusted to pH 6). The 2D ^1H-^15N HSQC spectra used to compare PDZ1, PDZ1ext, PDZ2 and PDZ2ext were recorded in Tris HCl pH 7.5 (50 mM). The 2D ^1H-^15N HSQC spectra used to compare PDZ1ext, PDZ2ext and P1P2 were recorded in Phosphate Buffer pH 6.5 (50 mM). Titration experiments of PDZ1 (WT), PDZ1ext (WT) and PDZ1ext (G103R) against ADGRV1pbm peptide were performed in Tris HCl pH 7.5 (50 mM). Averaged Chemical Shifts Perturbations (CSP) were calculated as: Δδavg = ((Δδ(^1H))^2+(Δδ(^15N)*0.159)^2)^½. For the determination of dissociation constants (Kd) of each peptide/PDZ interaction, averaged CSP δavg was plotted as a function of the molar ratio (peptide/PDZ) for several peaks and fitted using nonlinear regression and assuming a simple complex formation model.
The P1P2 tandem of PDZD7 is preceded by 80 residues with no predicted secondary or tertiary structure, but which could contribute to the interaction with ADGRV1. […] We first aimed at identifying potential secondary structures in both PDZD7 N-terminal region and ADGRV1 cytoplasmic domain. To this end, we produced both an extended PDZ1ext construct, including the N-terminus of the protein (N-PDZ1ext construct; M1-E192) and the whole ADGRV1 cytoplasmic domain of 152 residues.
On the overlay of PDZ1ext and N-PDZ1ext HSQC spectra, there is no significant chemical shift changes on PDZ1ext due to the presence of the N-terminal region (CSPs <0.04 ppm). […] We used the entire cytoplasmic domain of ADGRV1 as partner of PDZD7 in NMR and fluorescence titrations experiments. […] Finally, we measured Kd values in the few micromolar range between the tandem P1P2 and the whole cytoplasmic domain and the last 13 residues of ADGRV1 by fluorescence experiments.

Where no end group is shown, it is not given here.

From publication PMC9274004, “Deciphering the Molecular Interaction Between the Adhesion G Protein-Coupled Receptor ADGRV1 and its PDZ-Containing Regulator PDZD7” (Frontiers in Molecular Biosciences, 2022) come the findings set out here.

What is called Kd is a measure of binding affinity in units of concentration. In the case of VELRRIPIADTHL [ADGRV1pbm], the Kd was 270 ± 21 µM.
